Here are results for seven compounds from patent US20230122344A1, “ANTAGONISTS OF THE MUSCARINIC ACETYLCHOLINE RECEPTOR M4” (Vanderbilt University, priority 2019, published 2023).

Broadly, the IC50 is the concentration that gives 50% inhibition.

The experiment has as its target T1, Human M4 (Homo sapiens, UniProt P08173).
T1 construct: expressed in transfected cells; host or cells: CHO-K1 (ATCC), co-transfected with chimeric G protein Gqi5
T1 sequence (P08173 1-479): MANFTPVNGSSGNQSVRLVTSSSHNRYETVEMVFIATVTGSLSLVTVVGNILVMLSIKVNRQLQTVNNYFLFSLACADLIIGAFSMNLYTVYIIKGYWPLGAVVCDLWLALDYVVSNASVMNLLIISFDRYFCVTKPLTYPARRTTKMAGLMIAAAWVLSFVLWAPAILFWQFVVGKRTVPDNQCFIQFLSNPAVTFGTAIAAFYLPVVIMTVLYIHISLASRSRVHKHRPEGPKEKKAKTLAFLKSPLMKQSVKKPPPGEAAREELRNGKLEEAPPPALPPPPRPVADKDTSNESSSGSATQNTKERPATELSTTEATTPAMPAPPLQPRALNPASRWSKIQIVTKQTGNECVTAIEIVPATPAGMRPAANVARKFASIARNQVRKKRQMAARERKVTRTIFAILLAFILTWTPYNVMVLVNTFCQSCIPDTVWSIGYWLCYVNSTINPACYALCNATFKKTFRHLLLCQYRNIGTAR
Description: mAChR M4 cell-based functional assay (calcium flux, antagonism of EC80 acetylcholine response). The settings on record: M4/Gqi5/CHO-K1 cells; for remaining activity at 30 µM: CHO-K1, % ACh maximum at 30 μM, read-out: Human M4 Emin; for IC50: decrease of response elicited by EC80 acetylcholine. The gist of the method: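 CHO-K1 cells stably expressing human or rat M4 with Gqi5, Fluo-4 loaded; calcium measured by fluorescence ratio on FDSS. Compound added, then EC20 acetylcholine at 143 s and EC80 at 268 s; IC50 from decrease of EC80 response, four-parameter logistic fit.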
In general terms: Calcium assays in cells follow changes in intracellular calcium, usually with a dye or a luminescent sensor.

For `Fc1ccc(Cl)c(-c2nnc(N[C@H]3C[C@@H]4CN(CC5CCOCC5)C[C@@H]4C3)cc2C(F)F)c1` [compound 44, (3aR,5s,6aS)-N-(6-(2-chloro-5-fluorophenyl)-5-(difluoromethyl)pyridazin-3-yl)-2-((tetrahydro-2H-pyran-4-yl)methyl)octahydrocyclopenta[c]pyrrol-5-amine], the remaining activity at 30 µM amounted to 2% and the IC50 worked out at 0.65 nM.
On the same counts, the results for `[2H]C([2H])(C1CCOCC1)N1C[C@H]2C[C@H](Nc3nnc(-c4ccc5nn(C)cc5c4C)cc3C)C[C@H]2C1` [compound 23, (3aR,5s,6aS)-N-(6-(2,4-dimethyl-2H-indazol-5-yl)-4-methylpyridazin-3-yl)-2-((tetrahydro-2H-pyran-4-yl)methyl-d2)octahydrocyclopenta[c]pyrrol-5-amine] are 3% and 0.59 nM.
On the same counts, the results for `[2H]C([2H])(C1CCOCC1)N1C[C@H]2C[C@H](Nc3cc(C(F)F)c(-c4cc(F)ccc4C)nn3)C[C@H]2C1` [compound 32, (3aR,5s,6aS)-N-(5-(difluoromethyl)-6-(5-fluoro-2-methylphenyl)pyridazin-3-yl)-2-((tetrahydro-2H-pyran-4-yl)methyl-d2)octahydrocyclopenta[c]pyrrol-5-amine] are 3% and 2.76 nM.
On the same counts, the results for `[2H]C([2H])(C1CCOCC1)N1C[C@H]2C[C@H](Nc3nnc(-c4cc(F)ccc4C)c(C)c3C(F)(F)F)C[C@H]2C1` [compound 74, (3aR,5s,6aS)-N-(6-(5-fluoro-2-methylphenyl)-5-methyl-4-(trifluoromethyl)pyridazin-3-yl)-2-((tetrahydro-2H-pyran-4-yl)methyl-d2)octahydrocyclopenta[c]pyrrol-5-amine] are 2% and 159 nM.
Regarding `[2H]C([2H])(C1CCOCC1)N1C[C@H]2C[C@H](Nc3nnc(-c4ccccc4F)c(C)c3C)C[C@H]2C1` [compound 61, (3aR,5s,6aS)-N-(6-(2-fluorophenyl)-4,5-dimethylpyridazin-3-yl)-2-((tetrahydro-2H-pyran-4-yl)methyl-d2)octahydrocyclopenta[c]pyrrol-5-amine], the remaining activity at 30 µM stood at 2% and the half-maximal inhibitory concentration (IC50) amounted to 0.52 nM.
As to `Fc1cc(F)c(F)c(-c2nnc(N[C@H]3C[C@@H]4CN(CC5CCCCC5)C[C@@H]4C3)cc2C(F)F)c1` [compound 53, (3aR,5s,6aS)-2-(cyclohexylmethyl)-N-(5-(difluoromethyl)-6-(2,3,5-trifluorophenyl)pyridazin-3-yl)octahydrocyclopenta[c]pyrrol-5-amine], the remaining activity at 30 µM turned out to be 2% and the IC50 worked out at 19.1 nM.
On the same counts, the results for `Cc1cc(N[C@H]2C[C@@H]3CN(CC4CCOCC4)C[C@@H]3C2)nnc1-c1ccc2nn(C)cc2c1` [compound 15, (3aR,5s,6aS)-N-(5-methyl-6-(2-methyl-2H-indazol-5-yl)pyridazin-3-yl)-2-((tetrahydro-2H-pyran-4-yl)methyl)octahydrocyclopenta[c]pyrrol-5-amine] are 3% and 1.1 nM.
